Experimental data reported in the kinase profiling compilation of Christmann-Franck et al. (2016).

Assays:
Assay in all cases: KINOMEscan competition binding
Conditions in all cases: compound 2.0 µM
TYRO3 (human) = TYRO3 (human) (UniProt Q06418)
TGFBR2 (human) = TGFBR2 (human) (UniProt P37173)
CSNK2A2 (human) = CSNK2A2 (human) (UniProt P19784)
CDK9 (human) = CDK9 (human) (UniProt P50750)
[1] = tested on: KIT (human), P10721 [L576P]
MAPK11 (human) = MAPK11 (human) (UniProt Q15759)
EPHA3 (human) = EPHA3 (human) (UniProt P29320)
MELK (human) = MELK (human) (UniProt Q14680)
Sequence of MELK (human) (Q14680 whole entry, looked up): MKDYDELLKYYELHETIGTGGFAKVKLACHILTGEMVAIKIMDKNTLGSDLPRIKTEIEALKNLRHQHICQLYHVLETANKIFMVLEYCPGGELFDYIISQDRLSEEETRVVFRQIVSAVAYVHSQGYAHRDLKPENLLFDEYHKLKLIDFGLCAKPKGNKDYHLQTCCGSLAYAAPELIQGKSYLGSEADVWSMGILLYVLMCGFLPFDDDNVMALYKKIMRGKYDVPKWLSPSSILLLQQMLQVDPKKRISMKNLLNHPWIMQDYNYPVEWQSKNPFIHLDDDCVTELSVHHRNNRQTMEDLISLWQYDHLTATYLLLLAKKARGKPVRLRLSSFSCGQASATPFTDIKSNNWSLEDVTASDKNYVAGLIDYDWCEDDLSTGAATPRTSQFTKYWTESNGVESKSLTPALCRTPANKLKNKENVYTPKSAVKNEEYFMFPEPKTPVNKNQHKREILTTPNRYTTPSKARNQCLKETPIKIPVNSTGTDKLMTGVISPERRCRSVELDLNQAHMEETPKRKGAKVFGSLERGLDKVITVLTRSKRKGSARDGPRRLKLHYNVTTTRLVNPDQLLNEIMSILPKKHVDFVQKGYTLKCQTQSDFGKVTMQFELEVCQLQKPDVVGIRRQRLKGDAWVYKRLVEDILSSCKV

HIPK4 (human) = HIPK4 (human) (UniProt Q8NE63)
PTK2 (human) = PTK2 (human) (UniProt Q05397)
PIM1 (human) = PIM1 (human) (UniProt P11309)
Sequence of PIM1 (human) (P11309 whole entry, looked up): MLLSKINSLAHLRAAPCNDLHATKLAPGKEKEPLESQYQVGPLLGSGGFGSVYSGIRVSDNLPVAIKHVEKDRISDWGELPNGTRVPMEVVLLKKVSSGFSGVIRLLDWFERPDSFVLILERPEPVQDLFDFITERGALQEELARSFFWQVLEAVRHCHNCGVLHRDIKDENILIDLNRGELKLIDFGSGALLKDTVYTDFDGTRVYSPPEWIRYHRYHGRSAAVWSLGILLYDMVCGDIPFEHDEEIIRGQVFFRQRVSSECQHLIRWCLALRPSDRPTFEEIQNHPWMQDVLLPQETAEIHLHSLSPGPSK

STK4 (human) = STK4 (human) (UniProt Q13043)
Sequence of STK4 (human) (Q13043 whole entry, looked up): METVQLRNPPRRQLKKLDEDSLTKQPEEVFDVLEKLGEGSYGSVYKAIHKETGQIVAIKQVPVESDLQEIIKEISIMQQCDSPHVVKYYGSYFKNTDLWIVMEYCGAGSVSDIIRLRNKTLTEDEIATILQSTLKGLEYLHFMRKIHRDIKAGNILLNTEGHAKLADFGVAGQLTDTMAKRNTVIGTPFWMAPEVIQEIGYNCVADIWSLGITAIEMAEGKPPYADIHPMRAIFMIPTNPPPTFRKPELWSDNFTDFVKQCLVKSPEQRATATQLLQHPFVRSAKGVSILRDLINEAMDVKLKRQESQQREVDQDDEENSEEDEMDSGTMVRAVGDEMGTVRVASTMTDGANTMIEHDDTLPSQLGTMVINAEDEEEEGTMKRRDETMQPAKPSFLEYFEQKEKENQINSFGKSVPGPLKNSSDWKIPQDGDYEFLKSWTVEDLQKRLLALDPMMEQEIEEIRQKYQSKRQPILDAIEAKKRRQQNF

TSSK1B (human) = TSSK1B (human) (UniProt Q9BXA7)
CSNK1G1 (human) = CSNK1G1 (human) (UniProt Q9HCP0)
BTK (human) = BTK (human) (UniProt Q06187)
FLT4 (human) = FLT4 (human) (UniProt P35916)
[2] = tested on: FLT3 (human), P36888 [ITD]
PIK3CG (human) = PIK3CG (human) (UniProt P48736)
MAPK10 (human) = MAPK10 (human) (UniProt P53779)
ULK1 (human) = ULK1 (human) (UniProt O75385)
ALK (human) = ALK (human) (UniProt Q9UM73)
IGF1R (human) = IGF1R (human) (UniProt P08069)
DCLK2 (human) = DCLK2 (human) (UniProt Q8N568)
STK10 (human) = STK10 (human) (UniProt O94804)
DSTYK (human) = DSTYK (human) (UniProt Q6XUX3)
[3] = tested on: FGFR3 (human), P22607 [G697C]
EPHB1 (human) = EPHB1 (human) (UniProt P54762)
SIK3 (human) = SIK3 (human) (UniProt Q9Y2K2)
TIE1 (human) = TIE1 (human) (UniProt P35590)
CDC42BPA (human) = CDC42BPA (human) (UniProt Q5VT25)
Sequence of CDC42BPA (human) (Q5VT25 whole entry, looked up): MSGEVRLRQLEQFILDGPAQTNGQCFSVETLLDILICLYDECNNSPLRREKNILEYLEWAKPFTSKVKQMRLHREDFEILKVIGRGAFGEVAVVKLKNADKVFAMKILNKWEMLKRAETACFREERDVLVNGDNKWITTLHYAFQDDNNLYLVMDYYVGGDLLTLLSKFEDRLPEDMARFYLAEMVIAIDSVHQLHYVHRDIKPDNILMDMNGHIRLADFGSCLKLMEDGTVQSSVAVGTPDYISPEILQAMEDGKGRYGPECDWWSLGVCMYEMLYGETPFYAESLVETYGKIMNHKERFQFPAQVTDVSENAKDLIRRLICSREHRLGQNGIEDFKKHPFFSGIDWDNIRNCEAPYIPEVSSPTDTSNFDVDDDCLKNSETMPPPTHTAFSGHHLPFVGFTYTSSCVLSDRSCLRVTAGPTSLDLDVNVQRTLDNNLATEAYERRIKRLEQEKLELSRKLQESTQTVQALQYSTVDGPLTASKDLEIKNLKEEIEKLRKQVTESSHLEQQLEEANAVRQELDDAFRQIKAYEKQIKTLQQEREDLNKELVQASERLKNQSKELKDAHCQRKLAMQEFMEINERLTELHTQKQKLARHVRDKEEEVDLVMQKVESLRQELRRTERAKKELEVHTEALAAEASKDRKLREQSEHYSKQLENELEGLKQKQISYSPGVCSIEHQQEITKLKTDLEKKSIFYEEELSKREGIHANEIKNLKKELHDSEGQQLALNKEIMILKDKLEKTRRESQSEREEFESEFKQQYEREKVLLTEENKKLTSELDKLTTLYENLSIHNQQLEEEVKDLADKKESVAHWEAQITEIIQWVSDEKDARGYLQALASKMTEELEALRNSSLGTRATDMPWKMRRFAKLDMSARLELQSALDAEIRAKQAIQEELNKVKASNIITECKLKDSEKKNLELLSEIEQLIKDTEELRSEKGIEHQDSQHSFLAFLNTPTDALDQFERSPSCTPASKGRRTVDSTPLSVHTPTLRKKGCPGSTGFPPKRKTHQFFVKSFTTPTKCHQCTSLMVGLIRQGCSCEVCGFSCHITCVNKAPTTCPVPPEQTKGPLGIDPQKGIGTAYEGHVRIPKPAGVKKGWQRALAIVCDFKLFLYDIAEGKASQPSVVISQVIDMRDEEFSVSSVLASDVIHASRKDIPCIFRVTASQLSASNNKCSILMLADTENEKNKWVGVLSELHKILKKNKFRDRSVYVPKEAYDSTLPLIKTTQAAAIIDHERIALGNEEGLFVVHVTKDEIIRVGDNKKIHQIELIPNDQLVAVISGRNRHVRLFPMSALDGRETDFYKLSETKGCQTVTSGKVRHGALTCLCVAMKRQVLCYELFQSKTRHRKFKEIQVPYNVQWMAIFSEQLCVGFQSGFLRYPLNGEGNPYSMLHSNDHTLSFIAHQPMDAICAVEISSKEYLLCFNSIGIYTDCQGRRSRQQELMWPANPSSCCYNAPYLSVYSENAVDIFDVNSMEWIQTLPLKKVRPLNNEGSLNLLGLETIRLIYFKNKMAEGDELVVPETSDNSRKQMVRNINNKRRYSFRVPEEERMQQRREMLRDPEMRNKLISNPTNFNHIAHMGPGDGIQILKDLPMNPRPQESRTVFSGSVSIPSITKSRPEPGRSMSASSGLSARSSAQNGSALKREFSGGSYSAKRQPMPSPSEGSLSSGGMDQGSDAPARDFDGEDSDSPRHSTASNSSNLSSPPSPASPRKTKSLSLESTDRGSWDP

RPS6KA4 KD1 (human) = RPS6KA4 KD1 (human) (UniProt O75676)
WEE1 (human) = WEE1 (human) (UniProt P30291)
TGFBR1 (human) = TGFBR1 (human) (UniProt P36897)
TEK (human) = TEK (human) (UniProt Q02763)
Sequence of TEK (human) (Q02763 whole entry, looked up): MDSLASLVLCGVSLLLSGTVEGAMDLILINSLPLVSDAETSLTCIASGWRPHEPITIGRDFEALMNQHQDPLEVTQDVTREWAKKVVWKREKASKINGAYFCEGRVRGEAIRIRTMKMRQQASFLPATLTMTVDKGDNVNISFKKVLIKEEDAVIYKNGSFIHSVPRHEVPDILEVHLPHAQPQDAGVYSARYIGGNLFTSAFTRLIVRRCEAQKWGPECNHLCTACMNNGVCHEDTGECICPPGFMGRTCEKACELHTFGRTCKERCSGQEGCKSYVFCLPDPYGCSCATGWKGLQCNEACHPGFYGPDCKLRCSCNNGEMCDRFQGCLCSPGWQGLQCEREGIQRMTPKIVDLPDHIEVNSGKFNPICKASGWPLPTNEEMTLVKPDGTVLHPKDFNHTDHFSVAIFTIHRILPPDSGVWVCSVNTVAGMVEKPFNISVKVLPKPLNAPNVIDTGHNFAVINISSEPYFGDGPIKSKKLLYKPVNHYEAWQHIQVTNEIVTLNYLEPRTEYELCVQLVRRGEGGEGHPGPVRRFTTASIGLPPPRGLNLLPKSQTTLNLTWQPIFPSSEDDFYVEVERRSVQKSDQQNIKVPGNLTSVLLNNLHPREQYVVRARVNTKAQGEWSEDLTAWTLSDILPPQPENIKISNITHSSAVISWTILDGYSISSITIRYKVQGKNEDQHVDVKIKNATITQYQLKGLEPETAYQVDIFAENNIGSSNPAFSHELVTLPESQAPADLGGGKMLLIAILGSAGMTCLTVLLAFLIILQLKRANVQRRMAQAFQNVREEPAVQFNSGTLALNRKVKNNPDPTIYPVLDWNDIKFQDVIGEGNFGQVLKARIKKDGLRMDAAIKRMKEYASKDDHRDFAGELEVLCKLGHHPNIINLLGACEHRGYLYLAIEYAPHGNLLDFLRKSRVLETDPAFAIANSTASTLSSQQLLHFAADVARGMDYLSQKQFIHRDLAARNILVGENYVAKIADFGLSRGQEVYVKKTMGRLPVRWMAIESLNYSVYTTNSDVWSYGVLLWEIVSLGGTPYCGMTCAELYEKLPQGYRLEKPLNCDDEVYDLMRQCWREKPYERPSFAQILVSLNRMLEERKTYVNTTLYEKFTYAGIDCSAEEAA

MYO3B (human) = MYO3B (human) (UniProt Q8WXR4)
TTK (human) = TTK (human) (UniProt P33981)
[4] = tested on: MET (human), P08581 [M1250T]
PAK3 (human) = PAK3 (human) (UniProt O75914)
HIPK2 (human) = HIPK2 (human) (UniProt Q9H2X6)
OXSR1 (human) = OXSR1 (human) (UniProt O95747)
MAPKAPK5 (human) = MAPKAPK5 (human) (UniProt Q8IW41)
MST4 (human) = MST4 (human) (UniProt Q9P289)
ADCK3 (human) = ADCK3 (human) (UniProt Q8NI60)

Sequence of CDK9 (human) (P50750 whole entry, looked up): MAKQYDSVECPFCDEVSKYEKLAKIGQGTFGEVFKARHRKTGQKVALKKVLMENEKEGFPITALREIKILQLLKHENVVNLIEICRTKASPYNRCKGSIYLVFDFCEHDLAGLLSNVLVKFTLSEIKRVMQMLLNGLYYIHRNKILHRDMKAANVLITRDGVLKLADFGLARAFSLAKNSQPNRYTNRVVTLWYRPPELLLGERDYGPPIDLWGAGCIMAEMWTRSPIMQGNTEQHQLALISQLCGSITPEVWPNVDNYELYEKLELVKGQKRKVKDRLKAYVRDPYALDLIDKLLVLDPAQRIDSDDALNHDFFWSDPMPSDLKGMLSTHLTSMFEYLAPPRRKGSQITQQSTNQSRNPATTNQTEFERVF
Sequence of MAPK11 (human) (Q15759 whole entry, looked up): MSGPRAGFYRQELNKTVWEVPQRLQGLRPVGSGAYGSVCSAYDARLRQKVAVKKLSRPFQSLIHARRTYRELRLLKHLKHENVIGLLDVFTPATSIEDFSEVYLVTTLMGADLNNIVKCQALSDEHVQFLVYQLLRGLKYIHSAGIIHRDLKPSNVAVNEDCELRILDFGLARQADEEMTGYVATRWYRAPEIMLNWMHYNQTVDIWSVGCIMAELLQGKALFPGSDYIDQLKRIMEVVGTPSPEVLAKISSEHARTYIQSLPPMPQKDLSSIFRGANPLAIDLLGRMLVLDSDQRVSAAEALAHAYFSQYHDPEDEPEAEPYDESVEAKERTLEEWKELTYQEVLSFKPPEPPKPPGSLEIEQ

## N#Cc1ccc2ncnc(NCCc3ccc4ccccc4c3)c2c1
TYRO3 (human)
  kinase still bound, per cent of control: 87%
TGFBR2 (human)
  kinase still bound, per cent of control: 92%
CSNK2A2 (human)
  kinase still bound, per cent of control: 74%
CDK9 (human)
  kinase still bound, per cent of control: 100%
[1]
  kinase still bound, per cent of control: 86%
MAPK11 (human)
  kinase still bound, per cent of control: 100%
EPHA3 (human)
  kinase still bound, per cent of control: 91%
MELK (human)
  kinase still bound, per cent of control: 84%
HIPK4 (human)
  kinase still bound, per cent of control: 81%
PTK2 (human)
  kinase still bound, per cent of control: 88%
PIM1 (human)
  kinase still bound, per cent of control: 95%
STK4 (human)
  kinase still bound, per cent of control: 100%
TSSK1B (human)
  kinase still bound, per cent of control: 100%
CSNK1G1 (human)
  kinase still bound, per cent of control: 83%
BTK (human)
  kinase still bound, per cent of control: 86%
FLT4 (human)
  kinase still bound, per cent of control: 100%
[2]
  kinase still bound, per cent of control: 87%
PIK3CG (human)
  kinase still bound, per cent of control: 68%
MAPK10 (human)
  kinase still bound, per cent of control: 100%
ULK1 (human)
  kinase still bound, per cent of control: 100%
ALK (human)
  kinase still bound, per cent of control: 100%
IGF1R (human)
  kinase still bound, per cent of control: 100%
DCLK2 (human)
  kinase still bound, per cent of control: 100%
STK10 (human)
  kinase still bound, per cent of control: 67%
DSTYK (human)
  kinase still bound, per cent of control: 61%
[3]
  kinase still bound, per cent of control: 100%
EPHB1 (human)
  kinase still bound, per cent of control: 87%
SIK3 (human)
  kinase still bound, per cent of control: 100%
TIE1 (human)
  kinase still bound, per cent of control: 90%
CDC42BPA (human)
  kinase still bound, per cent of control: 100%
RPS6KA4 KD1 (human)
  kinase still bound, per cent of control: 83%
WEE1 (human)
  kinase still bound, per cent of control: 88%
TGFBR1 (human)
  kinase still bound, per cent of control: 100%
TEK (human)
  kinase still bound, per cent of control: 100%
MYO3B (human)
  kinase still bound, per cent of control: 96%
TTK (human)
  kinase still bound, per cent of control: 75%
[4]
  kinase still bound, per cent of control: 73%
PAK3 (human)
  kinase still bound, per cent of control: 100%
HIPK2 (human)
  kinase still bound, per cent of control: 87%
OXSR1 (human)
  kinase still bound, per cent of control: 100%
MAPKAPK5 (human)
  kinase still bound, per cent of control: 79%
MST4 (human)
  kinase still bound, per cent of control: 77%
ADCK3 (human)
  kinase still bound, per cent of control: 100%
